In patent publication US20240025924A1, “HETEROCYCLE SUBSTITUTED KETONE DERIVATIVE, AND COMPOSITION AND MEDICINAL USE THEREOF” (SHANGHAI HAIYAN PHARMACEUTICAL TECHNOLOGY CO., LTD., priority 2021, published 2024) one finds IC50 data, which are given here for 43 compounds.

One experiment concerns the target T1, SHP-2 enzyme (Homo sapiens, UniProt Q06124).
T1 construct: Homogeneous Full Length SHP-2 Assay Kit (BPS Bioscience #79330); purchased BPS Bioscience 79330
T1 sequence (Q06124 1-593): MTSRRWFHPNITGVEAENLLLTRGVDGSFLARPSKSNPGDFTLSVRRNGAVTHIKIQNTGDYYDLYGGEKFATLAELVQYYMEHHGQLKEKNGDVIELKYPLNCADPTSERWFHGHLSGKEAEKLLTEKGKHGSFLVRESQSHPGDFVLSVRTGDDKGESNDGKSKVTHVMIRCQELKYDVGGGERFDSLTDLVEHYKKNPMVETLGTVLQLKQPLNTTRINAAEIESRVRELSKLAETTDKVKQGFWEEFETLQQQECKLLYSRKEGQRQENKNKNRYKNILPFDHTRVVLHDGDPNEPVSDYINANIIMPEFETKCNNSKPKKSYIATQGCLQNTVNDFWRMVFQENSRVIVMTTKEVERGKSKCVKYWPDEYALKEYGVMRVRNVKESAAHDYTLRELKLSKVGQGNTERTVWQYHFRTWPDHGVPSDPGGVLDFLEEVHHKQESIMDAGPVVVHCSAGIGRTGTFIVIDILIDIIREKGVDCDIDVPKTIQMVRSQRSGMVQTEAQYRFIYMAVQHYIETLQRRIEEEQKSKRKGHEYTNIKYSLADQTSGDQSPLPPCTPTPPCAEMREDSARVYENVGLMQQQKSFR
Briefly: Phosphatase activity assay (Homogeneous Full Length SHP-2 Assay Kit, DiFMUP substrate). The conditions noted are these: full length SHP-2 activated with 0.5 μM SHP-2 activating Peptide; 1 hour co-incubation; DiFMUP 50 μM, 30 min. The format is biochemical. As to the method:
IC50 values were assayed using Homogeneous Full Length SHP-2 Assay Kit (BPS Bioscience #79330), which uses 6,8-difluoro-4-methylumbelliferone phosphate (DiFMUP) as the reaction substrate. SHP2 enzyme solution (diluted to 0.04 ng/μL with 1*buffer) was mixed with 0.5 μM SHP-2 activating Peptide in a 1*buffer solution containing 2.5 mM DTT to activate PTP. At the same time, DMSO (0.1% (V/V)) or the compounds (concentration: 0.5 nM to 1 μM) were added, mixed and co-incubated for 1 hour. DiFMUP (50 μM, total reaction system volume of 20 μL) was added, and the reaction was started. After 30 min of incubation, the fluorescence intensity of the reaction system (excitation wavelength: 350 nm, emission wavelength: 460 nm) was measured by Tecan Infinite M1000.

The next experiment has as its system MV-4-11 cell. Briefly: Cell proliferation assay (Cell Titer-Glo). It is filed as cell-based. Conditions: Homo sapiens, MV4-11, 96 h, inhibition of MV-4-11 cell proliferation; Cell Titer-Glo on day 4. As to the method: MV 411 cells (20000 cells/well) were inoculated and cultured in 96 (Corning #3916) well plates, and the medium was 80 μL/well (IMDM with 10% fetal bovine serum (FBS), Gibco #10099-141C). After 24 hours of incubation, 20 μL of the compounds of the present invention configured to different concentrations (DMSO final concentration of 0.1% (V/V)) were added. On day 4, 60 μL of Cell Titer-Glo (Promega #G7558) was added to each well and mixed at 80 rpm, 25° C., 15 min, and the fluorescence values were detected by Victor X5 (PE).

In general, IC50 refers to the concentration needed to halve the response being measured. Take `Nc1nc(N2CCC3(CC2)Cc2ccccc2C3N)cnc1C(=O)N1CCn2nccc2C1` (centres unmarked) [Compound 37]: the IC50 at SHP-2 enzyme worked out at 5 nM; in the experiment on MV-4-11 cell it was 172 nM.
On the same counts, the results for `Cn1c(N2CCC3(CC2)Cc2ccccc2C3N)nc(N)c(C(=O)N2CCCn3nccc32)c1=O` (centres unmarked) [Compound 40] are 59 nM and 59 nM.
On the same counts, the results for `Nc1nc(N2CCC3(CC2)Cc2ccccc2C3N)nnc1C(=O)N1CCCn2nccc21` (centres unmarked) [Compound 45] are 7 nM and 176 nM.
For `NC1c2ccccc2CC12CCN(c1ncc(C(=O)N3CCc4ncsc4C3)c3nccn13)CC2` (centres unmarked) [Compound 46], the IC50 at SHP-2 enzyme amounted to 29 nM; in the experiment with MV-4-11 cell, 166 nM.
On the same counts, the results for `Nc1nc(N2CCC3(CC2)Cc2ccccc2C3N)c(F)nc1C(=O)N1CCCn2nccc21` (centres unmarked) [Compound 49] are 8 nM and 241 nM.
Consider `Cn1cnc2c1CCCN2C(=O)c1ncc(N2CCC3(CC2)Cc2ccccc2C3N)nc1N` (centres unmarked) [Compound 50], for which the concentration for half-maximal inhibition (IC50) at SHP-2 enzyme stood at 14 nM; with MV-4-11 cell, 241 nM.
`Nc1nc(N2CCC3(CC2)Cc2ccccc2C3N)cnc1C(=O)N1CCc2nc(Cl)ccc21` (centres unmarked) [Compound 52]: the IC50 is 4 nM on SHP-2 enzyme and 196 nM in the experiment on MV-4-11 cell.
On the same counts, the results for `Nc1nc(N2CCC3(CC2)Cc2cc(Cl)ccc2C3N)cnc1C(=O)N1CCc2ncccc21` (centres unmarked) [Compound 53] are 4 nM and 192 nM.
Take `CC1(C)CN(C(=O)c2ncc(N3CCC4(CC3)Cc3ccccc3C4N)nc2N)Cc2scnc21` (centres unmarked) [Compound 54]: the IC50 at SHP-2 enzyme worked out at 8 nM; in the experiment with MV-4-11 cell, 206 nM.
As for `CC1(C)CN(C(=O)c2ncc(N3CCC4(CC3)Cc3ccccc3C4N)nc2N)Cc2sc(N)nc21` (centres unmarked) [Compound 61], the figures for the half-inhibitory concentration (IC50) at SHP-2 enzyme and with MV-4-11 cell were 7 nM and 71 nM, respectively.
On to `COc1ccc2c(c1)C(N)C1(CCN(c3cnc(C(=O)N4CCc5nc(N)ccc54)c(N)n3)CC1)C2` (centres unmarked) [Compound 62], for which the figures for the 50% inhibitory concentration (IC50) at SHP-2 enzyme and in the experiment with MV-4-11 cell were 5 nM and 156 nM, respectively.
With `Cc1ccc2c(c1)C(N)C1(CCN(c3cnc(C(=O)N4CCc5nc(N)ccc54)c(N)n3)CC1)C2` (centres unmarked) [Compound 64], the IC50 on SHP-2 enzyme is 5 nM; with MV-4-11 cell, 70 nM.
As to `Cc1nc(C(=O)N2Cc3sc(N)nc3C(F)(F)C2)c(N)nc1N1CCC2(CC1)Cc1ccccc1C2N` (centres unmarked) [Compound 65], the results for the IC50 on SHP-2 enzyme and in the experiment with MV-4-11 cell were 4 nM and 5 nM, respectively.
On the same counts, the results for `Nc1ccc2c(n1)CCN2C(=O)c1ncc(N2CCC3(CC2)Cc2ccc(CO)cc2C3N)nc1N` (centres unmarked) [Compound 66] are 9 nM and 196 nM.
On the same counts, the results for `Nc1nc(N2CCC3(CC2)Cc2ccccc2C3N)cnc1C(=O)N1CCCc2n[nH]cc21` (centres unmarked) [Compound 67] are 7 nM and 79 nM.
In the case of `Nc1ccc2c(n1)CCN2C(=O)c1cnc(N2CCC3(CC2)Cc2ccccc2C3N)c(CO)n1` (centres unmarked) [Compound 68], the IC50 was found to be 7 nM at SHP-2 enzyme and 125 nM in the experiment on MV-4-11 cell.
On the same counts, the results for `Nc1nc2c(s1)CN(C(=O)c1ncc(N3CCC4(CC3)Cc3ccccc3C4N)nc1N)CC2` (centres unmarked) [Compound 75] are 5 nM and 9 nM.
On the same counts, the results for `COc1ccc2c(c1)CC1(CCN(c3cnc(C(=O)N4CCCn5nccc54)c(N)n3)CC1)C2N` (centres unmarked) [Compound 76] are 10 nM and 191 nM.
On the same counts, the results for `Nc1nc(N2CCC3(CC2)Cc2c(F)cccc2C3N)nnc1C(=O)N1CCCn2nccc21` (centres unmarked) [Compound 77] are 11 nM and 150 nM.
Turning to `Nc1nc(N2CCC3(CC2)Cc2c(F)cccc2C3N)c(F)nc1C(=O)N1CCCn2nccc21` (centres unmarked) [Compound 78], the IC50 came to 10 nM on SHP-2 enzyme and 218 nM in the experiment with MV-4-11 cell.
For `Nc1nc(N2CCC3(CC2)Cc2ccncc2C3N)cnc1C(=O)N1CCCn2nccc21` (centres unmarked) [Compound 79], the IC50 at SHP-2 enzyme worked out at 14 nM; with MV-4-11 cell, 257 nM.
Turning to `Nc1nc(N2CCC3(CC2)Cc2ccccc2C3N)cnc1C(=O)N1CCc2nc(F)ccc21` (centres unmarked) [Compound 80], the values for the IC50 on SHP-2 enzyme and in the experiment with MV-4-11 cell were 4 nM and 127 nM, respectively.
On the same counts, the results for `Nc1nc(N2CCC3(CC2)Cc2cc(F)ccc2C3N)cnc1C(=O)N1CCc2nc(F)ccc21` (centres unmarked) [Compound 81] are 4 nM and 128 nM.
With `Nc1nc2c(s1)CN(C(=O)c1nc(Cl)c(N3CCC4(CC3)Cc3ccccc3C4N)nc1N)CC2` (centres unmarked) [Compound 83], the IC50 at SHP-2 enzyme is 4 nM; in the experiment on MV-4-11 cell, 17 nM.
On the same counts, the results for `Cc1nc(C(=O)N2CCc3nc(N)sc3C2)c(N)nc1N1CCC2(CC1)Cc1ccccc1C2N` (centres unmarked) [Compound 85] are 4 nM and 12 nM.
As for `Nc1nc(N2CCC3(CC2)Cc2ncsc2C3N)cnc1C(=O)N1CCCn2nccc21` (centres unmarked) [Compound 86], the IC50 at SHP-2 enzyme is 8 nM; in the experiment with MV-4-11 cell, 286 nM.
On the same counts, the results for `CC1(C)CCN(C(=O)c2ncc(N3CCC4(CC3)Cc3ccccc3C4N)nc2N)c2ccnn21` (centres unmarked) [Compound 87] are 9 nM and 159 nM.
Regarding `CC1CN(C(=O)c2ncc(N3CCC4(CC3)Cc3cc(F)ccc3C4N)nc2N)c2ccc(N)nc21` (centres unmarked) [Compound 88], the results for the IC50 at SHP-2 enzyme and in the experiment with MV-4-11 cell were 5 nM and 235 nM, respectively.
Turning to `CC1CN(C(=O)c2ncc(N3CCC4(CC3)Cc3ccccc3C4N)nc2N)c2ccc(N)nc21` (centres unmarked) [Compound 89], the IC50 on SHP-2 enzyme was determined as 4 nM; in the experiment with MV-4-11 cell, 127 nM.
On the same counts, the results for `Nc1ccc2c(n1)CCN2C(=O)c1ncc(N2CCC3(CC2)Cc2ccc(Cl)cc2C3N)nc1N` (centres unmarked) [Compound 91] are 3 nM and 61 nM.
For `CNc1ccc2c(n1)CCN2C(=O)c1ncc(N2CCC3(CC2)Cc2ccccc2C3N)nc1N` (centres unmarked) [Compound 92], the results for the IC50 at SHP-2 enzyme and in the experiment with MV-4-11 cell were 4 nM and 119 nM, respectively.
On the same counts, the results for `COc1ccc2c(c1)C(N)C1(CCN(c3cnc(C(=O)N4Cc5sc(N)nc5C(C)(C)C4)c(N)n3)CC1)C2` (centres unmarked) [Compound 93] are 8 nM and 114 nM.
With `CC1(C)CN(C(=O)c2ncc(N3CCC4(CC3)Cc3ccc(F)cc3C4N)nc2N)Cc2sc(N)nc21` (centres unmarked) [Compound 94], the 50% inhibitory concentration (IC50) at SHP-2 enzyme was found to be 7 nM; in the experiment with MV-4-11 cell, 110 nM.
On to `Nc1ccc2c(n1)CCN2C(=O)c1ncc(N2CCC3(CC2)Cc2ccc(F)cc2C3N)nc1N` (centres unmarked) [Compound 95], for which the figures for the IC50 at SHP-2 enzyme and with MV-4-11 cell were 3 nM and 176 nM, respectively.
`Nc1ccc2c(c1)CCN2C(=O)c1ncc(N2CCC3(CC2)Cc2ccccc2C3N)nc1N` (centres unmarked) [Compound 96]: the IC50 at SHP-2 enzyme amounted to 4 nM; in the experiment on MV-4-11 cell it was 157 nM.
On the same counts, the results for `Cc1cc2c(cc1C)C(N)C1(CCN(c3cnc(C(=O)N4CCc5nc(N)sc5C4)c(N)n3)CC1)C2` (centres unmarked) [Compound 99] are 10 nM and 46 nM.
For `Cc1nc(C(=O)N2CCc3nc(N)ccc32)c(N)nc1N1CCC2(CC1)Cc1ccccc1C2N` (centres unmarked) [Compound 100], the IC50 at SHP-2 enzyme was determined as 7 nM; with MV-4-11 cell it was 51 nM.
On to `Cc1nc(C(=O)N2Cc3sc(N)nc3C(C)(C)C2)c(N)nc1N1CCC2(CC1)Cc1ccccc1C2N` (centres unmarked) [Compound 101], for which the IC50 on SHP-2 enzyme came out at 18 nM; with MV-4-11 cell, 85 nM.
On the same counts, the results for `Cc1ccc2c(c1)C(N)C1(CCN(c3cnc(C(=O)N4Cc5sc(N)nc5C(C)(C)C4)c(N)n3)CC1)C2` (centres unmarked) [Compound 102] are 11 nM and 57 nM.
`CNc1ccc2c(n1)CCN2C(=O)c1nc(C)c(N2CCC3(CC2)Cc2ccccc2C3N)nc1N` (centres unmarked) [Compound 103]: the IC50 at SHP-2 enzyme was 13 nM; in the experiment with MV-4-11 cell, 65 nM.
Regarding `Cc1ccc2c(c1)C(N)C1(CCN(c3nc(N)c(C(=O)N4CCc5nc(N)ccc54)nc3C)CC1)C2` (centres unmarked) [Compound 104], the values for the IC50 at SHP-2 enzyme and with MV-4-11 cell were 10 nM and 58 nM, respectively.
For `Cc1nc(C(=O)N2Cc3sc(N)nc3C(C)C2)c(N)nc1N1CCC2(CC1)Cc1ccccc1C2N` (centres unmarked) [Compound 105], the 50% inhibitory concentration (IC50) at SHP-2 enzyme is 13 nM; in the experiment with MV-4-11 cell, 25 nM.
In the case of `Nc1ccc2c(n1)CCN2C(=O)c1nc(C2CC2)c(N2CCC3(CC2)Cc2ccccc2C3N)nc1N` (centres unmarked) [Compound 106], the IC50 worked out at 15 nM on SHP-2 enzyme and 164 nM with MV-4-11 cell.
